Data: the supplement of paper PMC12463676, “Small-molecule dissolution of stress granules by redox modulation benefits ALS models” (Nature Chemical Biology, 2025)

Tests used:
[1] = compound: NC(=O)CCCCC1CCSS1 [lipoamide]; assay: thermal stability z-score vs DMSO; higher = more thermally stabilized by treatment; settings: HeLa, lipoamide concentration 100 µM
Method: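 Cellular thermal proteome profiling in HeLa cells. Cells were treated with 100 µM lipoamide for 1 h, with or without 1 mM arsenate for a further 1 h, then heated to ten temperatures (37-66.3 °C), and soluble protein was quantified by TMT mass spectrometry relative to 0.1% DMSO controls. The thermal stability score (sum of log2 fold changes minus the abundance score) was transformed to a z-score; mean of n = 3 experiments.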

[2] = compound: O=[As]([O-])(O)O.[K+] [potassium arsenate]; assay: as above; settings: HeLa; arsenate concentration 1 mM
Method: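 Cellular thermal proteome profiling in HeLa cells treated with 1 mM arsenate for 1 h (DMSO pretreatment), heated to ten temperatures (37-66.3 °C). Soluble protein was quantified by TMT mass spectrometry relative to DMSO controls; the thermal stability score was transformed to a z-score; mean of n = 3 experiments.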

[3] = arsenate co-treatment: 1 mM arsenate 1 h
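Further: each temperature applied for 3 min, abundance score taken as mean log2 fold change at the two lowest temperatures, z-score obtained by mean subtraction and division by SD.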

UniProt O14656, sequence (O14656 whole entry): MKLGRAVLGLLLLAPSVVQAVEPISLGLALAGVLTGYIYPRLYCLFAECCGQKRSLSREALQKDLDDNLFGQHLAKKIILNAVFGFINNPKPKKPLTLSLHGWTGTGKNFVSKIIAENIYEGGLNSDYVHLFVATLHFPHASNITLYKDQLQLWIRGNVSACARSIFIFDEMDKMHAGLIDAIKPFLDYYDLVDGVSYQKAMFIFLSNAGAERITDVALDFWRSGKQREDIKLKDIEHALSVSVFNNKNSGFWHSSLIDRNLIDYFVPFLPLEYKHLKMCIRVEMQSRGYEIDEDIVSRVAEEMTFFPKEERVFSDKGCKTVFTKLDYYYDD
UniProt Q9HBL0, sequence (Q9HBL0 whole entry): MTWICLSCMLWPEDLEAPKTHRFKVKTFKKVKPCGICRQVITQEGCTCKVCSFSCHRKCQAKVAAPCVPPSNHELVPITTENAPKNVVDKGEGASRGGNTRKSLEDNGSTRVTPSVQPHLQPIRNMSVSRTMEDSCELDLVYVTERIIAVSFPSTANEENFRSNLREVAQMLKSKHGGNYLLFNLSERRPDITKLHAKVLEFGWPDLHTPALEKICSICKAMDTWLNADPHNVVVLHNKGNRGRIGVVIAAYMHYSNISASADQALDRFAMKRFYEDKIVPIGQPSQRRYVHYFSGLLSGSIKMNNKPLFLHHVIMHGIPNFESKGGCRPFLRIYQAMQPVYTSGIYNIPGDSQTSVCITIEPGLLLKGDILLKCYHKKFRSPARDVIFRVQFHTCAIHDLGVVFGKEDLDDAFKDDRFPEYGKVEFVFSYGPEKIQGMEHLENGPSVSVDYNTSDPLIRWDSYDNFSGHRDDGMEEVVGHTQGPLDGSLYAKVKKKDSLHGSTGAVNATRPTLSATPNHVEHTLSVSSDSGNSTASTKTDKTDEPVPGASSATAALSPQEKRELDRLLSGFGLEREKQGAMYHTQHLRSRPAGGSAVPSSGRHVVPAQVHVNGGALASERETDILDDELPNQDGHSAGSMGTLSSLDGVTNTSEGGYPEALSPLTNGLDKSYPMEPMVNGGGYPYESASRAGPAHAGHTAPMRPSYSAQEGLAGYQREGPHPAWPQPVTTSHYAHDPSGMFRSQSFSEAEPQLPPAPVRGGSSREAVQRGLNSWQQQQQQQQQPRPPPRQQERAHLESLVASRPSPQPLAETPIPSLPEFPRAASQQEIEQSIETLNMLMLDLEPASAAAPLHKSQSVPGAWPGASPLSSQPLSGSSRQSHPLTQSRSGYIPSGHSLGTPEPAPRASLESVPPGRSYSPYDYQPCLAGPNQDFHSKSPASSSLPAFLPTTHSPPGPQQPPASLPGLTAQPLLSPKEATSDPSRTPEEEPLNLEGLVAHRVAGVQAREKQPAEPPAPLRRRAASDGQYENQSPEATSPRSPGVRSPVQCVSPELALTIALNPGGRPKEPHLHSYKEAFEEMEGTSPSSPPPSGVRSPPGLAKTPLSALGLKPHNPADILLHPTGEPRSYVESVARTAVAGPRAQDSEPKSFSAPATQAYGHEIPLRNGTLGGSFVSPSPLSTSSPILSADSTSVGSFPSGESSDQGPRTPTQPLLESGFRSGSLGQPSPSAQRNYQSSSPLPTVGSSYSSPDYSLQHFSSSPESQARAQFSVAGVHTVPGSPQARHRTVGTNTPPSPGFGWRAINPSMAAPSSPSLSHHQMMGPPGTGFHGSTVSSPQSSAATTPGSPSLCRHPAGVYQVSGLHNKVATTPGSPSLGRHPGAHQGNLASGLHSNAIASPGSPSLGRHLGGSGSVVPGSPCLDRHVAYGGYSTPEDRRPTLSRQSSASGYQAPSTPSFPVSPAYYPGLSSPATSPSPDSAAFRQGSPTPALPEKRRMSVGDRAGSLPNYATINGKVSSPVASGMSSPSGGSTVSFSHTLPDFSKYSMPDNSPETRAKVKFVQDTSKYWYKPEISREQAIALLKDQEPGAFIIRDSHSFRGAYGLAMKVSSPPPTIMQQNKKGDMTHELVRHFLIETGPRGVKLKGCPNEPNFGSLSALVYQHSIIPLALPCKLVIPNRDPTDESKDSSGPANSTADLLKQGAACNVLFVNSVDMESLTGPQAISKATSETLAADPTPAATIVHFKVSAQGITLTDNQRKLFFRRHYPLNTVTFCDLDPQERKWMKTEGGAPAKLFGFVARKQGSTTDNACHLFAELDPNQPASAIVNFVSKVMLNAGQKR
UniProt Q13625, sequence (Q13625 whole entry): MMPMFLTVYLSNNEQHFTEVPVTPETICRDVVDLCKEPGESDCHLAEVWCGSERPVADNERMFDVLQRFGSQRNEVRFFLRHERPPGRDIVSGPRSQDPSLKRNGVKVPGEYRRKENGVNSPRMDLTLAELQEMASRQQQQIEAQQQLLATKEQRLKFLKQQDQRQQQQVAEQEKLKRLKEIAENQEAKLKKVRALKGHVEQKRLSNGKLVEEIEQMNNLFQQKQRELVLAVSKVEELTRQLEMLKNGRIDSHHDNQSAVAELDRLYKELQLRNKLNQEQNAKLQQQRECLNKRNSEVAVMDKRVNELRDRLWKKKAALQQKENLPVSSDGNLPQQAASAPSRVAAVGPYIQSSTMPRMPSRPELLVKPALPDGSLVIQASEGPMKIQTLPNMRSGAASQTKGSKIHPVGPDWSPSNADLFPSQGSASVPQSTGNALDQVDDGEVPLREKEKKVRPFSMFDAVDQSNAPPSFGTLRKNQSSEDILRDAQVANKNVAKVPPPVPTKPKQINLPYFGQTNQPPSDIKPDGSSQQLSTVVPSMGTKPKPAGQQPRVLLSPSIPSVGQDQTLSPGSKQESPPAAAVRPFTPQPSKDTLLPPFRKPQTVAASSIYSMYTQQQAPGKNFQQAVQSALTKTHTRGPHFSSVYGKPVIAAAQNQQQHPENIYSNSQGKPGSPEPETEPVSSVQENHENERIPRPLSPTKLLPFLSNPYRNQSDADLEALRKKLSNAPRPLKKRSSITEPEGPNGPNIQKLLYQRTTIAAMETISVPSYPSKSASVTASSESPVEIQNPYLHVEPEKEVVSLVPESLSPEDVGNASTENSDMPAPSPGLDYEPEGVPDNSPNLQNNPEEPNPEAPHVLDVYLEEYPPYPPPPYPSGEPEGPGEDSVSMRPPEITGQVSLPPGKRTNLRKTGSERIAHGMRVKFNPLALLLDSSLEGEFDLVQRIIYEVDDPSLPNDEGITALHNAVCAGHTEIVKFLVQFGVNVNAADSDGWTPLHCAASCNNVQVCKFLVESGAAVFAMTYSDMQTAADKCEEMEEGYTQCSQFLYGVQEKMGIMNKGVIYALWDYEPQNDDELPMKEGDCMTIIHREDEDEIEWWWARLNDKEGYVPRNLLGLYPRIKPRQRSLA
UniProt O94842, sequence (O94842 whole entry): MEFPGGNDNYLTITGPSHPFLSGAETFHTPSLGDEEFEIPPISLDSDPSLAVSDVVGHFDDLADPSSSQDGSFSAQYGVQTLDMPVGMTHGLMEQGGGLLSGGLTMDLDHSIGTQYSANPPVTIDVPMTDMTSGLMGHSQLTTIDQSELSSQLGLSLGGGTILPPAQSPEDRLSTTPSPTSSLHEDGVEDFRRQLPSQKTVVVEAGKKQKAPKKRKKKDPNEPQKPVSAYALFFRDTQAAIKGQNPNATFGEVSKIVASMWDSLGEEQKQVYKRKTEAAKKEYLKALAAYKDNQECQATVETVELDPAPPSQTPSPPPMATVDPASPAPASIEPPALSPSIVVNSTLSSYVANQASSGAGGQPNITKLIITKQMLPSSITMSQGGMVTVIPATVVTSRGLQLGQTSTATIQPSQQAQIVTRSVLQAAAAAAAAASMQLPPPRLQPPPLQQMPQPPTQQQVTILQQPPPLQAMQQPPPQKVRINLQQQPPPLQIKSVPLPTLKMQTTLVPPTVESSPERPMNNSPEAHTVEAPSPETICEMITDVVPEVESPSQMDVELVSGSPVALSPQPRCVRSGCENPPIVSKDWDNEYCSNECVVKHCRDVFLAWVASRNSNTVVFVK
UniProt P50616, sequence (P50616 whole entry): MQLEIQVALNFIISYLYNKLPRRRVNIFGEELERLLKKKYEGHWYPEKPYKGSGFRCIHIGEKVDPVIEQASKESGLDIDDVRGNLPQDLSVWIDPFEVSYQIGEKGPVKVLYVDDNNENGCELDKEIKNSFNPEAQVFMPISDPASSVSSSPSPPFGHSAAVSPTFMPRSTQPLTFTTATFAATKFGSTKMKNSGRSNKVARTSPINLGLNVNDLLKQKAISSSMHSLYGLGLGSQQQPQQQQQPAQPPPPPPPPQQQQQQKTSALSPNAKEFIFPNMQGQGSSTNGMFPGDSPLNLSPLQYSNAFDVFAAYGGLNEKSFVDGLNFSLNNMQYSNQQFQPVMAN
UniProt O96008, sequence (O96008 whole entry): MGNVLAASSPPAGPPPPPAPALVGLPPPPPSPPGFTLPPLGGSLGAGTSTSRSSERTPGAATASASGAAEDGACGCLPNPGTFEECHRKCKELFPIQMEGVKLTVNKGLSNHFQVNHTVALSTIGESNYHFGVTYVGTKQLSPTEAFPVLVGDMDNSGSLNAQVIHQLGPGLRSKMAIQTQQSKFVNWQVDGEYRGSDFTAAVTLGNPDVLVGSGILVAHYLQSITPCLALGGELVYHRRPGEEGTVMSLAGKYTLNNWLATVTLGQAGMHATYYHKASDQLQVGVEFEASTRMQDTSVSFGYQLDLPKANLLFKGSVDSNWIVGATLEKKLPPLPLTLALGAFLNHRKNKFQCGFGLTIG
UniProt Q15388, sequence (Q15388 whole entry): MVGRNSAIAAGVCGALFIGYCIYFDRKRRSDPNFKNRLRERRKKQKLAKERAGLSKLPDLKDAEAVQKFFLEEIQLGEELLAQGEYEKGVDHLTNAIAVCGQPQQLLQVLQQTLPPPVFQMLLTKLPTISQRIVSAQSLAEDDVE
UniProt Q9NS69, sequence (Q9NS69 whole entry): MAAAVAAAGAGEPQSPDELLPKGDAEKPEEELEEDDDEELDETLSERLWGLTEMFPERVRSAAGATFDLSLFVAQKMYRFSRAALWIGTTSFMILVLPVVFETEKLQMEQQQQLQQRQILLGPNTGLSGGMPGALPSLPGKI

Row | Target | thermal stability z-score [1, 3] | thermal stability z-score ([1]; arsenate co-treatment: none) | thermal stability z-score [2]
1 | TNPO2 (UniProt O14787) | -1.26 | -0.726 | 0.809
2 | TNPO3 (UniProt Q9Y5L0) | -0.654 | -0.367 | -0.107
3 | TNRC6A (UniProt Q8NDV7) | -0.105 | -0.121 | -0.416
4 | TNRC6B (UniProt Q9UPQ9) | -0.194 | -0.00843 | -0.306
5 | TNS1 (UniProt Q9HBL0) | -0.0135 | -0.0322 | -0.162
6 | TNS2 (UniProt Q63HR2) | -0.0104 | -0.0152 | -0.101
7 | TNS3 (UniProt Q68CZ2) | 0.341 | 0.204 | 1.32
8 | TNS4 (UniProt Q8IZW8) | -0.0278 | -0.078 | -0.0861
9 | TOB1 (UniProt P50616) | -1.37 | -0.305 | 0.159
10 | TOE1 (UniProt Q96GM8) | 0.165 | 0.146 | -2.54
11 | TOLLIP (UniProt Q9H0E2) | 0.239 | 0.158 | -0.313
12 | TOM1 (UniProt O60784) | 0.231 | -0.536 | 0.244
13 | TOM1L1 (UniProt O75674) | -1 | -0.807 | -0.623
14 | TOM1L2 (UniProt Q6ZVM7) | -0.00565 | -0.0362 | 0.0525
15 | TOMM20 (UniProt Q15388) | 0.133 | 1.67 | 1.73
16 | TOMM22 (UniProt Q9NS69) | 0.165 | 0.384 | 0.468
17 | TOMM34 (UniProt Q15785) | 0.52 | 0.356 | -0.0204
18 | TOMM40 (UniProt O96008) | 0.59 | 0.961 | 1.15

Row | Target | thermal stability z-score [1, 3] | thermal stability z-score ([1]; arsenate co-treatment: none) | thermal stability z-score [2]
19 | TOMM70 (UniProt O94826) | -0.0648 | 0.115 | -0.0776
20 | TONSL (UniProt Q96HA7) | -0.0593 | 0.0162 | -0.339
21 | TOP1 (UniProt P11387) | 0.0566 | 0.449 | -0.734
22 | TOP2A (UniProt P11388) | -0.141 | 0.0459 | -0.293
23 | TOP2B (UniProt Q02880) | 0.61 | 0.212 | -0.788
24 | TOP3A (UniProt Q13472) | -0.152 | 0.21 | -0.457
25 | TOP3B (UniProt O95985) | 0.2 | -0.391 | -0.73
26 | TOPBP1 (UniProt Q92547) | 0.0371 | 0.0228 | -0.623
27 | TOR1A (UniProt O14656) | -3.18 | -3.08 | 0.174
28 | TOR1AIP1 (UniProt Q5JTV8) | -2.27 | -2.09 | -0.146
29 | TOR1AIP2 | -3.46 | -2.77 | -0.134
30 | TOR1B (UniProt O14657) | -2.23 | -2.79 | 1.11
31 | TOR3A (UniProt Q9H497) | -1.02 | -0.712 | 0.553
32 | TOX4 (UniProt O94842) | -0.0663 | -0.0734 | -0.108
33 | TP53BP1 (UniProt Q12888) | 1.4 | 0.891 | -0.0759
34 | TP53BP2 (UniProt Q13625) | -1.06 | 0.188 | -1.29
35 | TP53I3 (UniProt Q53FA7) | 0.135 | -0.155 | -0.359
36 | TP53RK (UniProt Q96S44) | 0.0309 | -0.743 | -0.367
